# Measurements as given in PubChem BioAssay (NCI).
# Several values for one entry are separate records, joined by “and”; a condition that tells them apart may be missing. Equal entries are not always repeated.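 Five concentrations, 48 hours, 96-well plates. Abbreviation: GI50, concentration required for 50% inhibition of growth. At the TGI there is no net growth.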
# How the values were obtained:
# Assay in all cases: growth of human tumour cells (NCI), 48 h
# M14 melanoma = tested on: M14 melanoma
# LOX IMVI melanoma = tested on: LOX IMVI melanoma
# NCI-H226 lung = tested on: NCI-H226 lung
# 786-0 renal = tested on: 786-0 renal
# A498 renal = tested on: A498 renal
# MALME-3M melanoma = tested on: MALME-3M melanoma
# HCT-15 colon = tested on: HCT-15 colon
# TK-10 renal = tested on: TK-10 renal
# HCC-2998 colon = tested on: HCC-2998 colon
# OVCAR-5 ovarian = tested on: OVCAR-5 ovarian
SMILES,TGI (M14 melanoma),TGI (LOX IMVI melanoma),TGI (NCI-H226 lung),TGI (786-0 renal),TGI (A498 renal),TGI (MALME-3M melanoma),TGI (HCT-15 colon),TGI (TK-10 renal),TGI (HCC-2998 colon),TGI (OVCAR-5 ovarian),GI50 (LOX IMVI melanoma),GI50 (786-0 renal),GI50 (A498 renal),GI50 (TK-10 renal),GI50 (HCC-2998 colon),GI50 (OVCAR-5 ovarian),GI50 (M14 melanoma),GI50 (NCI-H226 lung),GI50 (MALME-3M melanoma),GI50 (HCT-15 colon)
C1CN(P2(N3CC3)=NP(N3CC3)(N3CC3)=NP(N3CC3)(N3CC3)=N2)CCO1 (stereo not given),> 100 µM,> 100 µM,> 100 µM,> 100 µM,> 100 µM,> 100 µM,> 100 µM,> 100 µM,> 100 µM,> 100 µM,,,,,,,,,,
CC1=NOC(=O)/C1=C/c1ccc([N+](=O)[O-])cc1,> 100 µM,> 100 µM,> 100 µM,> 100 µM,> 100 µM,> 100 µM,> 100 µM,> 100 µM,> 100 µM,> 100 µM,,,,,,,,,,
Cc1c(Cl)cccc1NC(=O)/C=C/c1ccccc1,> 100 µM,> 100 µM,> 100 µM,> 100 µM,> 100 µM,> 100 µM,> 100 µM,> 100 µM,> 100 µM,> 100 µM,,,,,,,,,,
CO[C@H]1C[C@](C)(O)Cc2cc3c(c(O)c21)C(=O)c1c(O)cc2c(c1C3=O)O[C@@H]1O[C@@]2(C)[C@H](O)[C@@H](N(C)C)[C@@H]1O,2.58 µM and 4.49 µM,2.15 µM and 2.71 µM,3.26 µM and 5.15 µM,1.8 µM and 2.18 µM,7.95 µM and 5.14 µM,3.44 µM and 13.3 µM,3.4 µM and 10.9 µM,6.49 µM and 21.5 µM,3.04 µM and 11.9 µM,3.3 µM and 15 µM,0.509 µM and 1.06 µM,0.302 µM,1.66 µM,3.89 µM,1.48 µM,1.37 µM,,,,
Cc1c(N)nc(C(CC(N)=O)NCC(N)C(N)=O)nc1C(=O)NC(C(=O)NC(C)C(O)C(C)C(=O)NC(C(=O)NCCc1nc(-c2nc(C(=O)NCCCNC(C)c3ccccc3)cs2)cs1)C(C)O)C(OC1OC(CO)C(O)C(O)C1OC1OC(CO)C(O)C(OC(N)=O)C1O)c1cnc[nH]1 (stereo not given),29.6 µM and > 100 µM,2.3 µM and 10.3 µM,2.97 µM and 24.8 µM,43.7 µM and 33.9 µM,27.5 µM,37.2 µM and > 100 µM,50 µM and > 100 µM,50 µM and > 100 µM,50 µM and > 100 µM,47.2 µM and > 100 µM,0.479 µM,1.38 µM,,> 100 µM,,2.21 µM,5.13 µM,1.59 µM,1.84 µM,26.8 µM
CCCCCCCC/C=C1\CCC(CN2CCOCC2)C1=O (stereo not given),16.7 µM,9.94 µM,33.3 µM,3.07 µM,29.9 µM,24.7 µM,9.52 µM,7.42 µM,26.2 µM,36.5 µM,,,,,,,,,,
COc1ccc(/C(C#N)=C/c2cc(OC)c(OC)c(OC)c2)cc1,> 100 µM,> 100 µM,> 100 µM,> 100 µM,> 100 µM,56.7 µM,> 100 µM,> 100 µM,> 100 µM,> 100 µM,22.2 µM,41.3 µM,22.7 µM,37.4 µM,23.1 µM,35.3 µM,19.3 µM,29.1 µM,7.68 µM,7.96 µM
CC(C)c1cccc(O)c(=O)c1,> 75 µg/mL and > 57.5 µM,> 75 µg/mL and > 100 µM,50.1 µM,> 75 µg/mL and > 100 µM,> 100 µM,48.3 µg/mL and > 81.2 µM,> 75 µg/mL and > 100 µM,> 75 µg/mL and > 100 µM,,> 75 µg/mL and > 100 µM,1.94 µg/mL,5.54 µg/mL,,17.3 µg/mL,1.63 µg/mL,75 µg/mL,75 µg/mL,,9.77 µg/mL,0.997 µg/mL
C=C1C(=O)O[C@H]2[C@H]1CC/C(Cn1cc(-c3ccc(F)cc3)nn1)=C\CC[C@@]1(C)O[C@@H]21,2.44 µM,2.22 µM,6.74 µM,2.36 µM,3.91 µM,2.97 µM,1.19 µM,2.53 µM,3.3 µM,3.13 µM,0.901 µM,1.06 µM,1.82 µM,1.24 µM,1.74 µM,1.48 µM,0.944 µM,2.48 µM,1.4 µM,0.282 µM
CCOC(=O)C12C(C(=O)OC)=C(C)N(NC(=O)Nc3ccccc3)C1(N)N(NC(=O)Nc1ccccc1)C(C)=C2C(=O)OC (stereo not given),45.6 µM,33.6 µM,> 100 µM,> 100 µM,> 100 µM,50.7 µM,> 100 µM,> 100 µM,86.8 µM,> 100 µM,,,,,,,,,,
NCCNC(=O)c1cccc2cc3ccccc3nc12,11 µM,2.76 µM,3.61 µM,> 68.4 µM,5.88 µM,3.29 µM,15 µM,21.2 µM,21.2 µM,14.6 µM,,,,,,,,,,
O=C(/C=C1\C(=O)N(Cc2ccccc2)c2ccccc21)c1ccc(OCCN2CCCCC2)cc1,3.72 µM,3.14 µM,39.7 µM,3.06 µM,28.8 µM,3.39 µM,3.31 µM,2.97 µM,3.47 µM,3.6 µM,1.71 µM,1.58 µM,14.2 µM,1.58 µM,1.86 µM,1.76 µM,1.92 µM,16.8 µM,1.71 µM,1.71 µM
CCC1(OC(=O)CN)C(=O)OCc2c1cc1n(c2=O)Cc2cc3ccccc3nc2-1 (stereo not given),0.846 µM and 0.174 µM,,0.15 µM and 0.0638 µM,0.194 µM and 0.161 µM,0.159 µM and 0.559 µM,0.802 µM and 3.75 µM,> 20.3 µM,15.1 µM,1.08 µM,0.6 µM and 0.533 µM,0.0089 µM,0.00563 µM,0.0129 µM,0.721 µM,0.175 µM,0.0728 µM,0.0179 µM,0.0151 µM,0.196 µM,0.192 µM
c1ccc(SC23C4C5C6C4C2C6C53)nc1 (stereo not given),> 100 µM,> 100 µM,> 100 µM,> 100 µM,> 100 µM,> 100 µM,> 100 µM,> 100 µM,> 100 µM,> 100 µM,,,,,,,,,,
CC1(C)OC(=O)C(C#N)=C1C[n+]1ccccc1,> 10 µM,> 10 µM,> 10 µM,> 10 µM,> 10 µM,> 10 µM,> 10 µM,> 10 µM,> 10 µM,> 10 µM,,,,,,,,,,
